Data on six molecules can be found in article PMC6804080, “Benzoxaboroles—Novel Autotaxin Inhibitors” (Molecules, 2019).

In one series the test system is LPA plasma levels. Conditions: cited from earlier work.
The subject of series [1] is ATX. On the set-up: method as in PMID 23688339. To be noted: read-out: IC50 (inhibitory properties); cited from earlier work.
A short description of series [2]: Chrom logD determination by gradient HPLC (CHI). It counts as physicochemical. Conditions: reversed-phase HPLC, Phenomenex Luna C18 column; pH 7.4, Luna C18 column. The procedure:
clogP values were calculated for all compounds using the Percepta software. Chrom logD was determined experimentally using a procedure described in the supplementary data. Furthermore, the correlation between calculated clogP values and experimentally determined Chrom log D values were explored for molecules containing boron functional groups such as boronic acids and benzoxaboroles.
Chrom logD values were determined from the following equation: Chrom logD = 0.0857 × CHI − 2 [39]. Chromatographic hydrophobic index (CHI) values were determined from the gradient retention times (RT). These values approximately corresponded to the volume percentage of organic component in the mobile phase when the compound elutes. CHI values were determined at pH 7.4. Chromatograms were obtained using on Agilent 1100 Series liquid chromatography system with an HPLC diode-array detector (DAD) coupled with a Micromass Quattro micro atmosphere pressure ionization (API) mass spectrometer. The column used for analyses was Phenomenex Luna C18 (50 × 3 mm, 5 µm, 100 Å). The column was maintained at 25 °C. The flow rate was 1.0 mL/min. The mobile phase was composed of 50 mM ammonium acetate in water at pH 7.4 (solvent A) and acetonitrile (solvent B). The solvent gradient condition was initially 0.5% B, and then it increased linearly to 100% B over 3.0 min, remaining at 100% B for 0.5 min, then decreasing linearly to 0% B over 0.2 min followed by an equilibration period of 1.3 min prior to the next injection. The total experimental duration was 5 min. Injection volume was 2.0 µl. Samples temperature was maintained at 15 °C in the autosampler chamber. A group of ten standard compounds having different CHI values was used for calibration of RP-HPLC [40].

Series [3] in a line: plasma protein binding, equilibrium dialysis, human plasma. Conditions: pH 7.4, read-out: PPB: fraction bound, human (converted). It counts as in vitro ADME. As for the experimental part:
(§1) Plasma protein binding was measured using the equilibrium dialysis technique. Positive controls included in this assay were: Acebutolol (low binding) and nicardipine (very high binding). The assay was performed in a 96-well Teflon dialysis unit, where each well consisted of two chambers separated by a dialysis membrane. Plasma (human and rat, commercially obtained from Seralab) spiked with each compound (final concentration: 5 µM, 0.5% DMSO) were added to one chamber, and a blank buffer solution (60 mM Na2HPO4/14 mM KH2PO4/70 mM NaCl; pH 7.4) was added to the other side of the well. Each compound was analyzed in duplicate, for 4 h at 37 °C. After 4 h, both the plasma (free and bound fraction) and buffer (only free fraction) side of the well were sampled, matrix matched, then precipitated with a STOP solution (CH3CN:CH3OH 2:1 v/v, containing diclofenac as internal standard), and centrifuged at 2000 rpm for 30 min (+4 °C). The resulting supernatants were analyzed by LC-MS/MS. The fraction bound was calculated as the concentration difference (analyte vs. internal standard peak area ratio) in the plasma and buffer sides divided by the total concentration in the plasma side. Sampling was also performed from spiked plasma at t = 0 min in order to determine recovery, i.e., % of compound detected at t = 4 h in both the plasma and buffer chambers divided by the compound detected at t = 0 min.
Background: In equilibrium dialysis free small molecules cross a membrane that holds back macromolecules.

Series [4] in a line: metabolic stability in human liver microsomes. The series is classed as in vitro ADME. The procedure:
(§2) Metabolic stability was assessed in rat and human liver microsomes, with testosterone and propranolol as positive controls. All compounds, at a final concentration of 1 μM (0.03% DMSO), were incubated in a phosphate buffer (50 mM, pH 7.4) for 60 min at 37 °C, together with liver microsomes in the absence and presence of NADPH generating system (nicotinamide adenine dinucleotide phosphate (NADP, 2 mM), glucose-6-phosphate (20 mM), glucose-6-phosphate dehydrogenase (6U) and magnesium chloride (2 mM)). Aliquots were taken at different time points (0, 10, 20, 30, 45 and 60 min), followed by reaction termination by addition of CH3CN:CH3OH 2:1 v/v, containing diclofenac as internal standard (IS). Samples were then centrifuged (at 2000 rpm at 4 °C for 30 min), and resulting supernatants were subjected to LC/MS/MS analysis. The in vitro half-life was calculated in GraphPadPrism software from % remaining vs. time regression using non-linear regression fit. In vitro intrinsic clearance, expressed as mL/min/g liver, was determined from in vitro half-life and normalized for the protein concentration in the incubation mixture, assuming a 52.5 mg/g liver.
Background: Microsomes from liver hold many membrane-bound enzymes, among them those of drug oxidation.

The target in the next series is T1, Autotaxin (ATX) (Homo sapiens, UniProt Q13822).
T1 construct: we added 10 μL of recombinant ATX (2 ng/mL) in a Tris–HCl buffer
The series can be described thus: biochemical choline detection assay for ATX inhibition, LysoPC substrate. Conditions: choline release assay using as a substrate; mean standard deviation from duplicate experiments. The procedure: All 21 new benzoxaboroles derivatives prepared herein were evaluated for ATX inhibition in vitro using a biochemical choline detection assay, combining elements of assays already described in the literature.
[…] Mother plates with serial dilutions of compounds in pure DMSO were prepared from 10 mM DMSO stock solutions. Storplate-384-deep-well-V plates (Perkin Elmer) were also used for mother plate preparation. Compounds were diluted in a DMSO in a ratio of 1:3. An aliquot of 200 nL of compound solution was transferred from the mother plate to the test plate with a Mosquito nanoliter liquid handling system (TTP labtech). The assay was performed in Spectra-Plate-384 TC, transparent, (Perkin Elmer, Cat#6007658) using a 20 µL assay volume. The total final percentage of DMSO in the test media was 1%. Compounds were tested at 11 consecutive three-fold dilutions starting from 50 µM (final concentrations) in duplicate, covering range of 0.0008–50 μM to determine IC50 values. […] After dispensing of compounds directly to the dry plate, we added 10 μL of recombinant ATX (2 ng/mL) in a Tris–HCl buffer (140 mM NaCl, 1mM MgCl2, 5 mM KCl, 3 mM CaCl2, 1 mg/ml bovin serum albumin (BSA, fatty acid free) and 100 mM Tris–HCl, pH 9). […] The above-described solution with dimethyl sulfoxide but without the test compound was used as a control. LysoPC without ATX was used as a control for the autohydrolysis of LysoPC. After 1.5 h of incubation, 20 μL of stop solution and developer was added {Choline oxidase (1.2 U/mL), Peroxidase (1.2 U/mL), TOOS (2.7 mM), 4-Aminoantipyrine (2.7 mM), and EDTA (50 mM)} to the reaction mixture, and absorbance was measured after 30 min of incubation. The absorbance was measured by using Perkin-Elmer EnVision plate reader (λ = 555 nm). Data were analyzed using GraphPad Prism software. The calculation of IC50 data, curves and quality control (QC) analysis was made by using Excel tools and GraphPadPrism software. Briefly, individual concentration–effect curves were generated by plotting the logarithm of the tested concentration of tested compounds (X) vs. corresponding percentage inhibition values (Y) using a least squares (ordinary) fit. […] QC criteria parameters (Z,’ S:B, ΔmP) were checked for every plate.

Series [5] is described as follows: in vitro plasma stability, human plasma. Conditions: after 4 h. The series is classed as in vitro ADME. The procedure:
(§3) The in vitro plasma stability of the test compounds was studied in human and rat plasma with propranolol, benflorex, and eucatropine as control substances. All compounds at final concentrations of 5 μM (0.5% DMSO) were incubated in a phosphate buffer (50 mM, pH 7.4) for 4 h at 37 °C together with plasma. Aliquots were taken at different time points (0, 30, 120 min and 4 h), followed by reaction termination by the addition of CH3CN:CH3OH 2:1 v/v., which contained diclofenac and warfarin as internal standards (IS). Samples were then centrifuged (at 1600 rpm at 4 °C for 30 min), and the resulting supernatants were subjected to LC/MS/MS analysis. Results are expressed as % remaining.

Series [6] in a line: plasma protein binding, equilibrium dialysis, rat plasma. It counts as in vitro ADME. To be noted: pH 7.4, rat plasma. The procedure:
as §1

Series [7] in a line: metabolic stability in rat liver microsomes. It counts as in vitro ADME. The procedure:
as §2

The nature of series [8]: kinetic solubility, turbidimetric method. The series is classed as physicochemical. Conditions: 37 °C, pH 7.4, aqueous buffer, kinetic from dmso stock, Solubility (kinetic solubility range). The procedure: Turbidimetric solubility allows for a rapid determination of kinetic solubility by using small amounts of the test compound. Assay controls were α-naphtoflavone (low solubility) and sulfaphenazole (expected solubility >100µM). DMSO stock solutions (10 mM) of each compound were first serially diluted 1 in 3 in DMSO and then spiked into an aqueous buffer (100 mM PBS), resulting in 5 following final concentration: 100, 30, 10, 3 and 1 µM (each concentration was tested in duplicate). […] Compound samples were compared to a solvent control in an aqueous buffer (DMSO 1% final concentration), and a significant increase of sample absorbance was considered to have occurred when the absorbance reached a 3-fold standard deviation of the average DMSO absorbance. The calculation of solubility range data was made by Excel tool software. Results are expressed as an estimated solubility range.

Series [9] can be described thus: in vitro plasma stability, rat plasma. It counts as in vitro ADME. Conditions: after 4 h. The procedure:
as §3

For series [10], the system named is A2058 human melanoma cells. Conditions: dose-dependent manner; cited from earlier work.
For series [11], the system named is ATX. To be noted: read-out: reported activity in in vitro LPC choline release assay; cited from earlier work.
The conditions of series [12]: cited from earlier work.
Details of series [13]: method as in PMID 23688339. Conditions: cited from earlier work.
The subject of a further series is glioma tumor. On the set-up: method as in PMID 30462853. Conditions: in vivo; cited from earlier work.
A further series has as its system glioblastoma cell lines. On the set-up: method as in PMID 30462853. To be noted: cited from earlier work.
[14] abbreviates: read-out: PPB: fraction bound, rat (converted).
Where [15] appears, read: mice, intravenous administration 1 nmol/g.

Converted amounts (≈) assume the structure as drawn. Where two headings read alike, the source gives them in different places.

`O=C1N=C(N2CCN(Cc3cccc(B(O)O)c3)CC2)SC1=Cc1ccc(Cl)c(Cl)c1` [Compound 3BoA]: the LPA plasma levels entry with LPA plasma levels (mice, 4 mg/kg i.v. injection) is on record as “significantly decreases LPA plasma levels (almost to zero)”. In addition, the “plasma LPA levels” value in the series with LPA plasma levels (mice, 4 mg/kg intravenous administration) was “decreases rapidly plasma LPA levels”. For the same molecule, the IC50 in the series on ATX [1] was 0.013 µM.

For orientation: chromatographic logD means lipophilicity estimated from chromatographic retention. Low values mean a more hydrophilic compound, high ones a more lipophilic compound. For orientation: kinetic solubility means solubility judged after dilution from a stock solution rather than from solid. On to `Cc1cc(C)cc(COC(=O)N2CCN(C3CCN(C(=O)c4ccc5c(c4)B(O)OC5)C3)CC2)c1` (stereo not drawn) [Compound 43, (3,5-dimethylphenyl)methyl 4-[1-(1-hydroxy-3H-2,1-benzoxaborole-6-carbonyl)pyrrolidin-3-yl]piperazine-1-carboxylate], for which, in [2], the chromatographic logD came out at 4.13. Moreover, the fraction unbound at 4 h, 5 µM in [3] was 0.022; in series [6] (setting [14]), 0.039. In addition, the “LMS: predicted in vivo hepatic clearance, human” value (from here on “LMS: predicted … human”) in series [4] is given as 85 %LBF. The molecule also showed an IC50 at Autotaxin (ATX) of 2.7 ± 2.11 µM. Besides, the “PS (plasma stability), human” value in [5] was determined as 79.2 %remaining. In addition, the “LMS: predicted in vivo hepatic clearance, rat” value (“LMS: predicted … rat” for short) in series [7] is 80 %LBF. The kinetic solubility at 1 h in series [8] was > 100 µM. For the same molecule, the “PS (plasma stability), rat” value in series [9] came out at 59.5 %remaining.

Consider `Cc1cc(C)cc(COC(=O)N2CCN(C3CN(C(=O)c4ccc5c(c4)B(O)OC5)C3)CC2)c1` [Compound 45, (3,5-dimethylphenyl)methyl 4-[1-(1-hydroxy-3H-2,1-benzoxaborole-6-carbonyl)azetidin-3-yl]piperazine-1-carboxylate], for which the chromatographic logD in series [2] was 4.17. The figures for the fraction unbound at 4 h, 5 µM in [3] and in series [6] (setting [14]) were 0.041 and 0.056, respectively. In addition, in series [4], the “LMS: predicted … human” value is given as 84 %LBF. The molecule also came in with an IC50 at Autotaxin (ATX) of 1 ± 1.15 µM. Further, the “PS (plasma stability), human” value in series [5] came to 72.8 %remaining. Besides, the “LMS: predicted … rat” value in series [7] is reported as 61 %LBF. In series [8], the kinetic solubility at 1 h is > 100 µM. The “PS (plasma stability), rat” value in series [9] is 68.6 %remaining.

In the case of `O=C1S/C(=C\c2ccc(OCc3cccc(B(O)O)c3)cc2)C(=O)N1Cc1ccc(F)cc1` [HA130], the “ATX-mediated migration of A2058 human melanoma cells” value in series [10] is “inhibited”. Moreover, the IC50 in the series on ATX [11] is 0.028 µM. For the same molecule, in the series on LPA plasma levels, the “LPA in the in vivo study” value is recorded as “lowering LPA significantly”. In addition, in the series with LPA plasma levels (setting [15]), the “LPA levels in the plasma” value is listed as “rapid decrease of LPA levels” and the toxicity result is given as “no overt toxicity issues observed”. The half-life in vivo result in series [12] is “less than five”.

In the case of `O=C1S/C(=C\c2ccc(OCc3ccc(B(O)O)cc3)cc2)C(=O)N1Cc1ccc(F)cc1` [HA155, reference compound], the fraction unbound at 4 h, 5 µM in [3] is < 0.001; in [6] (setting [14]) it was 0.001; in [6] (read-out: fraction unbound, rat plasma) it was 0.004. For the same molecule, the “Solubility, value taken from literature” value in series [13] is 6.8 µM (≈ 3.15 µg/mL). Moreover, the “LMS: predicted … human” value in series [4] is recorded as 54 %LBF. In addition, in series [5], the “PS (plasma stability), human” value is listed as 42.9 %remaining. Also, the “LPA in the in vivo study” value in the series on LPA plasma levels was “lowering LPA significantly”. Also, the half-life in vivo entry in series [12] is on record as “less than five”. Also, the “LMS: predicted … rat” value in [7] was < 30 %LBF. In addition, in series [9], the “PS (plasma stability), rat” value is 65.7 %remaining.

`O=C(CCN1CCN(C(=O)OCc2cc(Cl)cc(Cl)c2)CC1)c1ccc2[nH]c(=O)oc2c1` [PF-8380]: in the series with glioma tumor, the “glioma tumor growth progression” value is listed as “delaying simultaneously glioma tumor growth progression”. Also, the anti-invasive effect entry in the series on glioblastoma cell lines is “significant anti-invasive effect”.
